Assay results reported in patent US20220119399A1, “COMPOUNDS AND COMPOSITIONS THAT CAUSE MYCN AND/OR CMYC DEGRADATION AND METHODS OF USE THEREOF” (THE TRUSTEES OF COLUMBIA UNIVERSITY IN THE CITY OF NEW YORK, priority 2018, published 2022).
Entries after “also recorded” stand apart in the source; their conditions may differ. Where a SMILES comes first, the peptide text is derived from it. The star is where a group is joined. Cbz = O=C(OCc1ccccc1)*

Legend:
SK-N-Be2 cells [1] = test: Cell viability assay (CellTiterGlo) in SK-N-Be2 cells; type: cell-based, human; conditions: for IC20: determined empirically
mTOR = mTOR (Homo sapiens, UniProt P42345); conditions: Bajer et al. 2014; cited from earlier work
[2] = Metabolic stability in mouse liver microsomes; type: in vitro ADME; conditions: 2 h incubation, positive control
Description: Mouse liver microsomes (Xenotech) were diluted to 0.5 mg/mL in a solution containing 100 mM PBS buffer at 7.4 pH, an NADPH regenerating system (Promega), and test compounds at 20 μM. The mixture was incubated at 37° C. under gentle rotation for the indicated time points. The reaction was quenched by aliquoting 15 μL of solution into 60 μL ice-cold acetonitrile containing an internal standard. Test compounds were quantified by LC-MS using a system comprised of a Thermo Scientific Dionex Ultimate 3000 and a Bruker amaZon SL equipped with an electrospray ionization source controlled by a Bruker Hystar 3.2. Compounds were separated by injecting 20 μL of sample onto an Agilent Eclipse Plus C18 column (2.1×50 mm, […]) maintained at 20° C., with the flow rate set at 400 μL/min. Initial flow conditions were 60% solvent A (MilliQ H2O, 0.1% acetic acid), and 40% solvent B (HPLC-grade MeOH, 0.1% acetic acid). Solvent B was raised to 60% over 0.25 min and to 70% by 6.75 min. Solvent B was raised to 95% by 7 min and lowered back to 40% by 8 minutes; total run time was 9 min.

[3] = tested on: Histone H3 phosphorylation; test: Histone H3 phosphorylation western blot; type: cell-based; conditions: 1 μM
Excerpt: Membranes were blocked using Odyssey Blocking Buffer (LI-COR) for 1 hr at room temperature. […] Primary antibodies used in these studies include: MycN (CST; 1:500 dilution), Actin (SCBT; 1:2000 dil.), cMYC (CST; 1:500 dil.), pAKT (S473; CST; 1:500 dil.), AKT (CST; 1:2000), pP70 (T389; CST; 1:1000) P70 (CST; 1:1000).
We also compared the potency of these drugs against a recently developed AurKA inhibitor that acts by disrupting protein confirmation rather than simply blocking the protein:protein interaction site as alisertib does.

MYCN MR signature = test: RNASeq with VIPER analysis of the MYCN MR signature; type: cell-based, human; conditions: SK-N-Be2 cells; listed as dimethyl pomiferin
Description: (§1) To uncover changes in gene expression that underpin responses to pomiferin and isopomiferin, RNASeq analysis of SK-N-Be2 cells was performed following treatment with the two active prenylated isoflavonoids as well as a null analog that served as a negative control. SK-N-Be2 cells were treated with either 3 μM or 10 μM of isopomiferin or pomiferin and sampled after 3 h and 6 h. […] By comparing the active to the null analogs, downstream analyses can focus on changes in gene expression associated with the MYCN signature.
Intriguingly, only six MRs were suppressed by pomiferin and isopomiferin, while being unaffected by the null analog dimethyl pomiferin (FIG. 20B).

MYCN transcript = test: RNASeq analysis of SK-N-Be2 cells, MYCN transcript; type: cell-based, human; conditions: 3 μM or 10 μM, 3 h and 6 h
Description: as §1

TEAD4 transcript = test: RNASeq analysis of SK-N-Be2 cells, TEAD4 transcript; type: cell-based, human; conditions: 3 μM or 10 μM, 3 h and 6 h
Description: as §1

mutant isoform of CK2a1 = test: Cell viability after expression of mutant CK2a1 isoform; conditions: versus GFP-expressing plasmid
[4] = tested on: MycN^AMP regulatory module (Master Regulators, TCM); test: PLATE-Seq with VIPER analysis: reversion of the MycN^AMP master regulator module; type: cell-based, human; conditions: SK-N-Be2 cells, IC20, 24 hrs
Excerpt: Reads were mapped against the human reference genome version Grch38 using the STAR aligner, and used the variance stabilizing transformation from the DESeq2 package for R to normalize each plate. Next, we corrected for batch effect due to having compounds replicates on separate plates. We used the function combat from the sva package for R to compute the batch-corrected normalized gene expression, and fitted a linear model for each compound against the set of DMSO controls on each plate (6 wells per plate per DMSO-treated cells). We used the limma package for R to fit the linear model and to compute p-values and moderated t-statistics for each gene. For each compound, we used a vector of these statistics to generate a gene expression profile of z-scores representing the compound effect as differential between post- and pre-treatment.
Each compound gene expression profile was analyzed using the VIPER algorithm (Alvarez et al. 2016) with TARGET and NRC NBL interactomes, reverse-engineered as described in (Rajbhandari et al. 2018), resulting in two protein activity profiles for each compound that were integrated using Stouffer's z-score method.

CK2a1 = molecular target: T1, CK2a1 (Homo sapiens, UniProt P68400); test: Cell-free biochemical CK2a1 kinase assay
T1 construct: purchased Reaction Biology Corporation (Malvern, Pa.)
T1 sequence (P68400 whole entry): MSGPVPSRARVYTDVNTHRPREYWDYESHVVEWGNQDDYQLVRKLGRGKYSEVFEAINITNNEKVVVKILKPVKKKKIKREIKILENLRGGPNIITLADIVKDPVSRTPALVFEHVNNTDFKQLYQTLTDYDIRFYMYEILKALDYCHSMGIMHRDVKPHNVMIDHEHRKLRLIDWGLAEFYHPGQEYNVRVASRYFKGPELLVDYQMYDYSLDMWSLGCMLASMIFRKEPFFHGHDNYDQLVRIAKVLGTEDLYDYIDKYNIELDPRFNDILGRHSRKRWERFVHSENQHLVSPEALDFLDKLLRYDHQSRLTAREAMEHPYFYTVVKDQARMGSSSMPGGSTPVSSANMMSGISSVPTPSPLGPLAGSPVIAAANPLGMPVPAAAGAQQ
Description: Cell-free biochemical kinase assays were performed at Reaction Biology Corporation (Malvern, Pa.). In brief, kinase substrates were diluted into reaction buffer containing 20 mM Hepes (pH 7.5), 10 mM MgCl2, 1 mM EGTA, 0.02% Brij35, 0.02 mg/ml BSA, 0.1 mM Na3VO4, 2 mM DTT, 1% DMSO. Purified protein (CK2a1, CK2a2, or mTOR) was added to the substrate solution and gently mixed. Test compounds were diluted from 10 mM DMSO stock solutions into the reaction buffer using an Echo550 acoustic dispenser, followed by incubation at RT for 20 min. 33P-ATP (10 μCi/μL) was added to reaction mixture, following incubation for 2 h at RT. Reactions were then spotted onto P81 ion exchange paper and kinase activity was detected by filter binding method.

SK-N-Be2 cells [5] = type: in vitro ADME, human
Description: In brief, SK-N-Be2 cells were seeded at 400 k cells/well in 6 w plates and incubated overnight. The following day, compounds were added to wells at indicated concentrations, with DMSO-only control added to non-treated wells. Following treatment for the indicated time periods, cells were trypsinized, rinsed twice with cold PBS to remove media, pelleted by centrifugation, and frozen at −20° C. To extract compounds, frozen pellets were resuspended in 150 μL of acetonitrile, sonicated for 2′, and centrifuged at 1400×g for 75′ at 4° C. Supernatant was collected and analyzed by LC-MS using a system comprised of a Thermo Scientific Dionex Ultimate 3000 and a Bruker amaZon SL equipped with an electrospray ionization source controlled by a Bruker Hystar 3.2. Compounds were separated by injecting 20 μL of supernatant onto an Agilent Eclipse Plus C18 column (2.1×50 mm, […]) maintained at 20° C., with the flow rate set at 400 μL/min. Initial flow conditions were 60% solvent A (MilliQ H2O, 0.1% acetic acid), and 40% solvent B (HPLC-grade MeOH, 0.1% acetic acid). Solvent B was raised to 60% over 0.25 min and to 70% by 6.75 min. Solvent B was raised to 95% by 7 min and lowered back to 40% by 8 minutes; total run time was 9 min (Bos et al. 2019).

[6] = Homo sapiens, SKNBE2, SK-N-Be2 cells

CC(=O)[C@@]1(O)[C@H](C)C[C@H]2[C@@H]3C=C(C)C4=Cc5c(cnn5-c5ccccc5)C[C@]4(C)[C@H]3[C@@H](O)C[C@@]21C [NSC80997]
IC20 (SK-N-Be2 cells [1]; SK-N-Be2 cells): 7500 nM

CC(=O)Oc1ccc(-c2coc3c4c(c(CC=C(C)C)c(OC(C)=O)c3c2=O)OC(C)(C)C=C4)cc1OC(C)=O [pomiferin triacetate, 4-(5-acetoxy-8,8-dimethyl-6-(3-methylbut-2-en-1-yl)-4-oxo-4H,8H-pyrano[2,3-f]chromen-3-yl)-1,2-phenylene diacetate]
mTOR activity and general kinase inhibition (mTOR): can inhibit mTOR activity; also recorded: does not possess general kinase inhibition activity

CCOc1ccc2ccc(=O)oc2c1 [7-ethoxycoumarin, reference compound]
metabolism by mouse liver microsomes [2]: metabolized across the duration of the assay

COc1cc([C@@H]2c3cc4c(cc3[C@H](O)[C@H]3COC(=O)[C@H]23)OCO4)cc(OC)c1OC [Podofilox]
IC20 (SK-N-Be2 cells [1]; [6]): 1000 nM

CN(C)c1ccc2nc3ccc(=[N+](C)C)cc-3sc2c1 [Methylene Blue]
IC20 (SK-N-Be2 cells [1]; [6]): 2000 nM
Histone H3 phosphorylation [3]: inhibit Histone H3 phosphorylation

COc1ccc(-c2coc3c4c(c(CC=C(C)C)c(O)c3c2=O)OC(C)(C)C=C4)cc1OC [pomiferin dimethyl ether, 3-(3,4-dimethoxyphenyl)-5-hydroxy-8,8-dimethyl-6-(3-methylbut-2-en-1-yl)-4H,8H-pyrano[2,3-f]chromen-4-one]
effect on the MYCN MR signature (VIPER of RNASeq) (MYCN MR signature): does not revert the MYCN signature; also recorded: did not
inhibition of SK-N-Be2 cell viability (rank or activity in words) (SK-N-Be2 cells [1]; SK-N-Be2 cells, 72 hrs): inactivity at 20 μM
MYCN transcript abundance (RNASeq) (MYCN transcript): did not affect either MYCN or TEAD4
TEAD4 transcript (RNASeq) (TEAD4 transcript): did not affect either MYCN or TEAD4

CC(C)C[C@@H](C=O)NC(=O)[C@H](CC(C)C)NC(=O)[C@H](CC(C)C)NC(=O)OCc1ccccc1 [MG132] (Cbz-Leu-Leu-Leu-aldehyde)
resistance conferred by mutant CK2 isoform (mutant isoform of CK2a1): no resistance was conferred by the plasmid

COc1cc(Nc2ncc3c(n2)-c2ccc(Cl)cc2C(c2c(F)cccc2OC)=NC3)ccc1C(=O)O [alisertib]
Histone H3 phosphorylation [3]: inhibit Histone H3 phosphorylation
reversion of the MR regulatory module / TCM (VIPER of PLATE-Seq) [4]: does not suppress the regulatory signature in the same way as isopomiferin

c1ccc2c(c1)Nc1ccccc1S2 [phenothiazine]
activity in NBL cells (cell viability) (SK-N-Be2 cells [1]; NBL cell lines, 48 hrs): inactive in NBL
reversion of the MR regulatory module / TCM (VIPER of PLATE-Seq) [4]: does not revert the signature

OC(c1cc(-c2ccc(C(F)(F)F)cc2)nc(C(F)(F)F)c1)C1CCCCN1 (stereo not shown) [NSC305798]
IC20 (SK-N-Be2 cells [1]; SK-N-Be2 cells): 5000 nM

Oc1ccc(Cl)c2cccnc12 [Cloxyquin]
IC20 (SK-N-Be2 cells [1]; [6]): 5000 nM

CO[C@H]1/C=C\C=C(/C)C(=O)NC2=CC(=O)C(N)=C(C[C@@H](C)C[C@H](OC)[C@H](O)[C@@H](C)/C=C(\C)[C@@H]1OC(N)=O)C2=O [NSC255109]
IC20 (SK-N-Be2 cells [1]; SK-N-Be2 cells): 2500 nM

O=C(O)c1ccc2c(c1)nc(Nc1cccc(Cl)c1)c1ccncc12 [CX-4945]
CK2a1 kinase activity (CK2a1): completely inhibited kinase activity of CK2a at all concentrations tested
resistance conferred by mutant CK2 isoform (mutant isoform of CK2a1): modest resistance
cell permeability (SK-N-Be2 cells [5]): poor cell permeability
amount of compound detected in cell sample (SK-N-Be2 cells [5]; human, 20 μM): 2.2 ng

CC[C@@H](C(=O)O)[C@@H]1O[C@@H]([C@@H](C)[C@H](O)[C@H](C)C(=O)[C@H](CC)[C@H]2O[C@]3(C=C[C@@H](O)[C@]4(CC[C@@](C)([C@H]5CC[C@](O)(CC)[C@H](C)O5)O4)O3)[C@H](C)C[C@@H]2C)[C@@H](C)C[C@@H]1C [Narasin]
IC20 (SK-N-Be2 cells [1]; [6]): 1000 nM

c1ccc(-c2cccc(-c3ccccn3)n2)nc1 [NSC3905]
IC20 (SK-N-Be2 cells [1]; SK-N-Be2 cells): 3000 nM

CN(C)c1ccc2nc3ccc(N)cc3[s+]c2c1.[Cl-] [Azure A]
IC20 (SK-N-Be2 cells [1]; SK-N-Be2 cells): 1000 nM
Histone H3 phosphorylation [3]: inhibit Histone H3 phosphorylation

COc1cccc2c1C(=O)c1c(O)c3c(c(O)c1C2=O)C[C@@](O)(C(=O)CO)C[C@@H]3O[C@H]1C[C@H](N)[C@H](O)[C@H](C)O1 [doxorubicin]
reversion of the MR regulatory module / TCM (VIPER of PLATE-Seq) [4]: induced spurious effects

COc1c(C)c2c(c(O)c1C/C=C(\C)CCC(=O)O)C(=O)OC2 [Mycophenolic acid]
IC20 (SK-N-Be2 cells [1]; [6]): 2500 nM
